Results reported in patent publication US11919872B1, “N′-(2-(5-(4-chlorophenyl)-1,3,4-oxadiazol-2-ylthio)acetoxy)benzimidamide as an antimicrobial compound” (KING FAISAL UNIVERSITY, priority 2023, dated 2024).
Where “and” joins values, the source holds several entries; their conditions need not be identical. Equal entries are not always repeated.

What was measured:
[1] = tested on: Bacillus cereus; assay: Agar plate disc-diffusion, antibacterial inhibition zone; assay type: cell-based; conditions: nutrient agar, 37° C., 48 hours
Protocol: (§1) The agar plate disc-diffusion method was applied. Sterilized filter papers (6 mm in diameter) were wetted with 10 μL of a solution of N′-(2-(5-(4-chlorophenyl)-1,3,4-oxadiazol-2-ylthio)acetoxy)benzimidamide (3) to be tested, containing 10 mg/mL in DMSO, and the discs were allowed to air dry. The discs were then placed onto the surface of agar plates (nutrient agar for bacteria and Sabouraud's dextrose agar for fungi) seeded with the test organism. Each plate contained 15 mL of the agar medium, previously seeded with 0.2 mL of the broth culture of each organism pregrown for 18 hours. The plates were incubated at 37° C. for 48 hours and 72 hours for fungi. The inhibition zones were measured in mm. Discs impregnated with DMSO were used as a control, and their inhibition zone was subtracted from the tested compound's actual inhibition zone.

[2] = tested on: Escherichia coli; assay: as above; assay type: cell-based; conditions: nutrient agar, 37° C., 48 hours
Protocol: as §1

[3] = tested on: Pseudomonas aeruginosa; assay: as above; assay type: cell-based; conditions: nutrient agar, 37° C., 48 hours
Protocol: as §1

[4] = tested on: Staphylococcus aureus; assay: as above; assay type: cell-based; conditions: nutrient agar, 37° C., 48 hours
Protocol: as §1

[5] = tested on: Aspergillus flavus; assay: Agar plate disc-diffusion, antifungal inhibition zone; assay type: cell-based; conditions: Sabouraud's dextrose agar, 37° C., 72 hours
Protocol: as §1

[6] = tested on: Chrysosporium keratinophilum; assay: as above; assay type: cell-based; conditions: Sabouraud's dextrose agar, 37° C., 72 hours
Protocol: as §1

[7] = A = concentration of comp. = 10,000 μL
[8] = B = concentration of comp. = 30,000 μL
[9] = C = concentration of comp. = 50,000 μL
[10] = A = concentration of comp. = 10,000 μg/mL

Structure (SMILES) | inhibition zone, Bacillus Cereus [1, 7] [mm] | inhibition zone, Bacillus Cereus [1, 8] [mm] | inhibition zone, Bacillus Cereus [1, 9] [mm] | inhibition zone, Escherichia coli [2, 7] [mm] | inhibition zone, Escherichia coli [2, 8] [mm] | inhibition zone, Escherichia coli [2, 9] [mm] | inhibition zone, Pseudomonas aeruginosa [3, 7] [mm] | inhibition zone, Pseudomonas aeruginosa [3, 8] [mm] | inhibition zone, Pseudomonas aeruginosa [3, 9] [mm] | inhibition zone, Staphylococcus aureus [4, 7] [mm] | inhibition zone, Staphylococcus aureus [4, 8] [mm] | inhibition zone, Staphylococcus aureus [4, 9] [mm] | inhibition zone, Aspergillus flavus [5, 10] [mm] | inhibition zone, Aspergillus flavus [5, 8] [mm] | inhibition zone, Aspergillus flavus [5, 9] [mm] | inhibition zone, Chrysosporium keratinophilum [6, 10] [mm] | inhibition zone, Chrysosporium keratinophilum [6, 8] [mm] | inhibition zone, Chrysosporium keratinophilum [6, 9] [mm] | melting point
O=C(O)c1cn(C2CC2)c2cc(N3CCNCC3)c(F)cc2c1=O [Cip., ciprofloxacin, reference compound] | 29 | 30 | 42 | 30 | 39 | 60 | 29 | 30 | 53 | 43 | 44 | 53 | 29 | 30 | 42 | 29 | 30 | 53 | –
N/C(=N\OC(=O)CSc1nnc(-c2ccc(Cl)cc2)o1)c1ccccc1 [Compound 3, N′-(2-(5-(4-chlorophenyl)-1,3,4-oxadiazol-2-ylthio)acetoxy)benzimidamide] | 27 | 29 | 40 | 22 | 33 | 46 | 25 | 29 | 50 | 38 | 42 | 52 | 27 | 29 | 38 | 24 | 29 | 50 | ~ 174 °C and 174 °C
